{"source": "patent US20080187575A1", "about": "(priority 2004, published 2008)", "tested_on": "pathogenic form of the prion protein PrP^Sc in prion infected cells (3F4-ScN2a)", "format": "cell-based, mouse", "settings": "for amount of PrP^Sc in prion infected cells: concentration range between 5 and 20 μM (final concentration), three days; for activity of prion propagation (FIG. 5): within concentration range 5 to 20 μM", "data": [{"smiles": "Cc1ccc(N)cc1Nc1nccc(-c2cccnc2)n1", "note": "[Compound 4, 4-Methyl-N-3-(4-pyridin-3-yl-pyrimidin-2-yl)-benzene-1,3-diamine]", "values": [{"measurement": "amount of PrP^Sc in prion infected cells", "result": "significantly reduced"}, {"measurement": "activity of prion propagation (FIG. 5)", "result": "inhibit almost completely"}]}, {"smiles": "Cc1ccc(NC(=O)c2ccc(CCl)cc2)cc1Nc1nccc(-c2cccnc2)n1", "note": "[Compound 5, 4-Chloromethyl-N-[4-methyl-3-(4-pyridin-3-yl-pyrimidin-2-ylamino)-phenyl]-benzamide]", "values": [{"measurement": "amount of PrP^Sc in prion infected cells", "result": "significantly reduced"}, {"measurement": "activity of prion propagation (FIG. 5)", "result": "inhibit almost completely"}]}, {"smiles": "O=S(=O)(Nc1cccc(Nc2nccc(-c3ccncc3)n2)c1)c1ccc(Cl)cc1", "note": "[Compound 37, 4-Chloro-N-[3-(4-pyridin-4-yl-pyrimidin-2-ylamino)-phenyl]-benzenesulfonamide]", "values": [{"measurement": "amount of PrP^Sc in prion infected cells", "result": "significantly reduced"}, {"measurement": "activity of prion propagation (FIG. 5)", "result": "inhibit almost completely"}]}]}
